Assay results taken from paper PMC3353944, “BC4707 Is a Major Facilitator Superfamily Multidrug Resistance Transport Protein from Bacillus cereus Implicated in Fluoroquinolone Tolerance” (PLoS ONE, 2012).

Target: T1, BC4707 (Bacillus cereus, UniProt Q816V8)
T1 construct: gene BC_4707; full-length with RGSHis6 tag (kept), expressed from pTTQ18 (pBC4707) in E. coli DH5alpha delta-acrAB
Experiment: norfloxacin accumulation assay, fluorescence of cell extracts vs empty-vector cells
Assay type: cell-based
Conditions: E. coli DH5alpha delta-acrAB, 100 uM norfloxacin, 20 mM glucose, pH 7.0; CCCP (100 uM) added at 15 min

T1 sequence (Q816V8 entry or part of it): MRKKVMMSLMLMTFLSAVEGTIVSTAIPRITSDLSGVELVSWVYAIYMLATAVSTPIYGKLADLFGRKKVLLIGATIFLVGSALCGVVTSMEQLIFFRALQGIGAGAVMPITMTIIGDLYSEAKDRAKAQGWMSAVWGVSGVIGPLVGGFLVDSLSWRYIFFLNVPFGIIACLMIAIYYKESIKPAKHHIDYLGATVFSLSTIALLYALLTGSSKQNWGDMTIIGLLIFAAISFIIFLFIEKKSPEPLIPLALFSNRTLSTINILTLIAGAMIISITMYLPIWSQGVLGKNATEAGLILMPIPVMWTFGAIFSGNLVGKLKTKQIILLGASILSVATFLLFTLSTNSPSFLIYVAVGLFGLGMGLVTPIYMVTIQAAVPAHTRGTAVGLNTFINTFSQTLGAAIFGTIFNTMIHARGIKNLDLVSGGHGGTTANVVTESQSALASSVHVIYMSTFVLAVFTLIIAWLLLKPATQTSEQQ

For `CCn1cc(C(=O)O)c(=O)c2cc(F)c(N3CCNCC3)cc21` [norfloxacin], the “norfloxacin accumulation assay, fluorescence of cell extracts vs empty-vector ce” value was “indicating that the presence of BC4707-RGSHis6 prevents accumulation of norfloxacin in the cells”.
